Where two headings read alike, the source gives them in different places.

A short description of data set [1]: Measurement of fluorescent property of compound (spectrofluorometer). It is filed as physicochemical. Conditions: 5 μM DMSO solution. On the procedure:
The excitation wavelength and fluorescence wavelength of the compound were measured by a FL4500 spectrofluorometric measuring machine manufactured by Hitachi High-Technologies Corporation.

In data set [2] the test system is Human pancreas cancer cells, KLM-1. Briefly: Cancer cell inhibitory (growth suppressive) action against pancreatic cancer cells, CellTiter-Glo viable cell count. It is filed as cell-based. The note with it: KLM1, KLM-1, 10 μg/mL, 24 hours. As to the method:
(§1) Observation on cancer cell inhibitory (growth suppressive) action against pancreatic cancer cells Human pancreas cancer cells, KLM-1, were pre-cultured in RPMI1640 medium containing 10% FBS at 37° C. in a 5% CO2 ambient. Thereafter, 4,000 cells were seeded per well of a 96-well plate and further cultured for 24 hours. Subsequently, Compound (1) was added to the medium so as to obtain a final concentration of 10 μg/mL and cultured at 37° C. for 24 hours in a 5% CO2 ambient. The cultured cells were analyzed for viable cell count according to CellTiter-Glo Luminescent Cell Viability Assay (manufactured by Promega KK.). As a reference, the number of cells cultured in a medium containing a 0.1% dimethylsulfoxide solution (hereinafter, simply referred to as DMSO) in place of a medium containing Compound (1), in the aforementioned operation, was regarded (100%).
Viable cell count was analyzed in the same manner as in Experimental Example 1 except that Compound (1) of Experimental Example 1 was changed to compounds shown in Table 2.
Viable cell count was analyzed in the same manner as in Experimental Example 1 except that Compound (1) was changed to comparative compounds 1 to 4.
Viable cell counts of Experimental Examples 1 to 7 and Comparative Examples 1 to 4 were analyzed to obtain growth rates.
Evaluation of cancer cell inhibition against the pancreatic cancer cells (KLM-1) (growth suppression) was made based on the following criteria. Note that the growth rate in Examples herein is a numerical value of the number of cells obtained after culture relative to the number of cells (regarded as 100) grown in a medium containing 0.1% DMSO. Evaluation of cancer cell inhibition against the pancreatic cancer cells (KLM-1) was made as follows. • A: Cancer cell growth rate is less than 20% (cancer cell inhibitory (growth suppressive) effect is extremely high) • B: Cancer cell growth rate is 20% or more and less than 50% (cancer cell inhibitory (growth suppressive) effect is high) • C: Cancer cell growth rate is 50% or more (cancer cell inhibitory (growth suppressive) effect is low)
In general terms: In ATP-based viability assays light output follows the ATP content of the culture.

Data set [3] relates to K562 ALDH (+) fraction (cancer stem cells). The experiment in a line: Cancer stem-cell selective inhibitory action against chronic myelocytic leukemia cells, ALDH (+) fraction, CellTiter-Glo. It counts as cell-based. The note with it: Homo sapiens, 24 hours; for activity at 10 µg/mL: 10 μg/ml; for activity at 1 µg/mL: 1 μg/mL. On the procedure:
(§2) Human chronic myelocytic leukemia cells, K562, were pre-cultured in RPMI1640 medium containing 10% FBS at 37° C. in a 5% CO2 ambient. Then, a fraction containing 80% or more of cancer stem cells was extracted by use of ALDEFLUOR reagent (manufactured by VERITAS Corporation) and FACSAria flow cytometry (manufactured by Nippon Becton, Dickinson and Company). Subsequently, Compound (5) was added to the medium so as to obtain a final concentration of 10 μg/mL and cultured at 37° C. for 24 hours in a 5% CO2 ambient. The cultured cells were analyzed for viable cell count according to CellTiter-Glo Luminescent Cell Viability Assay (manufactured by Promega KK.). As a reference, the number of cells cultured in a medium containing a 0.1% dimethylsulfoxide solution (hereinafter, simply referred to as DMSO) in place of a medium containing Compound (1), in the aforementioned operation, was used as 0.1. Note that hereinafter, an ALDEFLUOR reagent positive fraction (deemed as cancer stem cells) is represented by ALDH (+), whereas an ALDEFLUOR reagent negative fraction (not deemed as cancer stem cells) is represented by ALDH (−), in some cases.
(§3) The same operation as in Experimental Example 12 was repeated except that Compound (5) in Experimental Example 12 was changed to the compounds shown in Table 4 and final concentrations shown in Table 4 were used and viable cell counts were separately analyzed. Note that the growth rate in Examples herein is a numerical value of the number of cells obtained after culture relative to the number of cells (regarded as 0.1) grown in a medium containing 0.1% DMSO.
(§4) The same operation as in Experimental Example 12 was repeated except that Compound (5) in Experimental Example 12 was changed to Imatinib (manufactured by NOVARTIS), which is a general anticancer drug, and comparative compounds shown in Table 4 and final concentrations shown in Table 4 were used and viable cell counts were separately analyzed.
(§5) The growth suppressive effect of cancer stem cells was evaluated based on the following criteria. Note that the growth rate in Examples herein is a numerical value relative to the number of cells (regarded as 0.1) grown in a medium containing 0.1% DMSO. • A: The value of ALDH (+) is less than 0.5 (growth suppressive effect against cancer stem cells is extremely high) • B: The value of ALDH (+) is 0.5 or more and less than 0.95 (growth suppressive effect against cancer stem cells is high) • C: The value of ALDH (+) is 0.95 or more (no growth suppressive effect against cancer stem cells)
(§6) Furthermore, superiority of cancer stem cells was evaluated by comparing cancer stem cells to cancer cells based on the following criteria. ALDH (+) represents cancer stem cells; whereas ALDH (−) represents general cancer cells. • A: The value of ALDH (+)/ALDH (−) is less than 0.8 (selective inhibitory effect against cancer stem cells is extremely high) • B: The value of ALDH (+)/ALDH (−) is 0.8 or more and less than 0.95 (selective inhibitory effect against cancer stem cells is high) • C: The value of ALDH (+)/ALDH (−) is 0.95 or more (no selective inhibitory effect against cancer stem cells)

Data set [4] deals with K562 ALDH (−) fraction (general cancer cells). Briefly: Cancer stem-cell selective inhibitory action against chronic myelocytic leukemia cells, ALDH (−) fraction, CellTiter-Glo. It is filed as cell-based, Human. Conditions: Homo sapiens, 24 hours, relative to 0.1% DMSO, read-out: ALDH(−) (growth rate); for activity at 10 µg/mL: 10 μg/ml; for activity at 1 µg/mL: 1 μg/mL. As to the method: as §2, §3, §4, §5, §6

Data set [5] has as its system Prostatic cancer cells, PC-3. The experiment in a line: Cancer cell inhibitory (growth suppressive) action against prostatic cancer cells, CellTiter-Glo viable cell count. It is filed as cell-based. Conditions: PC-3, 10 μg/mL, 24 hours. On the procedure: as §1, with “Prostatic” for “Observation on cancer cell inhibitory (growth suppressive) action against pancreatic cancer cells Human pancreas”, “PC-3,” for “KLM-1,”, “(11)” for “(1)”, “(11),” for “(1),”, “used as 100.” for “regarded (100%).”
Viable cell count was analyzed in the same manner as in Experimental Example 8 except that the compounds shown in Table 3 were used in place of Compound (11) of Experimental Example 8.
Viable cell count was analyzed in the same manner as in Experimental Example 8 except that comparative compounds 1 to 4 were used in place of Compound (11) of Experimental Example 8.
The growth rate in Examples herein is a numerical value of the number of cells obtained after culture relative to the number of cells (regarded as 100) grown in a medium containing 0.1% DMSO.
Evaluation of cancer cell inhibition against the prostatic cancer cells (PC-3) was made as follows. • A: Cancer cell growth rate is less than 20% (cancer cell inhibitory (growth suppressive) effect is extremely high) • B: Cancer cell growth rate is 20% or more and less than 50% (cancer cell inhibitory (growth suppressive) effect is high) • C: Cancer cell growth rate is 50% or more (cancer cell inhibitory (growth suppressive) effect is low)

Where [6] appears, read: read-out: Evaluation (cancer cell growth rate).
Setting [7] is: relative to 0.1% DMSO (100), read-out: Cancer cell growth rate (%).
Setting [8] is: read-out: Growth suppression evaluated.
The mark [9] stands for this setting: relative to 0.1% DMSO, read-out: ALDH(+) (growth rate).

Consider `CCN1c2ccc(/C=C/C3=[N+](CC)c4ccc(OC)cc4C34CCCCC4)cc2C2CCCC21` (stereo not drawn) [Compound 8], for which the Excitation wavelength λex in data set [1] was found to be 586 nm. This molecule also returned a Fluorescence wavelength λem in data set [1] of 623 nm. In addition, the activity at 10 µg/mL in data set [2] (setting [6]) was 20 to 50%; in data set [2] (setting [7]), 24.3%; in data set [3] (setting [8]), less than 50%; in data set [3] (setting [9]) it was 23%; in data set [4] it was 32%.

On to `CC1(C)C(/C=C/c2ccc3c(c2)C2CCCC2N3c2ccc(C=C(c3ccccc3)c3ccccc3)cc2)=[N+](CCC(=O)O)c2ccccc21` (stereo not drawn) [Compound 31], for which, in data set [1], the Excitation wavelength λex amounted to 611 nm and the Fluorescence wavelength λem was 720 nm.

In data set [1], `COc1ccc(N2c3ccc(/C=C/C4=[N+](CCC(=O)O)c5ccccc5C4(C)C)cc3C3CCCC32)cc1` (stereo not drawn) [Compound 32] came in with an Excitation wavelength λex of 592 nm. For the same molecule, in data set [1], the Fluorescence wavelength λem was determined as 671 nm. In addition, the activity at 10 µg/mL in data set [3] (setting [8]) is 50 to 95%; in data set [3] (setting [9]) it was 78%; in data set [4] it was 90%.

Take `COc1ccc(N2c3ccc(/C=C/c4sc5ccccc5[n+]4CC(=O)O)cc3C3CCCC32)cc1` (stereo not drawn) [Compound 33]: in data set [1], the Excitation wavelength λex came out at 560 nm. In addition, the Fluorescence wavelength λem in data set [1] turned out to be 677 nm. The figures for the activity at 10 µg/mL in data set [3] (setting [8]), in data set [3] (setting [9]) and in data set [4] were 50 to 95%, 90% and 101%, respectively.

`CCN1c2ccc(/C=C/C3=[N+](C)c4ccccc4C3(C)C)cc2C2CCCC21` (stereo not drawn) [Compound 34] gave an Excitation wavelength λex in data set [1] of 575 nm. Also, in data set [1], the Fluorescence wavelength λem is 611 nm. Further, the figures for the activity at 10 µg/mL in data set [3] (setting [8]), in data set [3] (setting [9]) and in data set [4] were less than 50%, 17% and 24%, respectively.

The molecule `CCn1c2ccccc2c2cc(/C=C/C3=[N+](C)c4ccccc4C3(C)C)ccc21` [Compound 36] showed an Excitation wavelength λex in data set [1] of 488 nm. The molecule further registered a Fluorescence wavelength λem in data set [1] of 594 nm. In addition, the results for the activity at 10 µg/mL in data set [3] (setting [8]), in data set [3] (setting [9]) and in data set [4] were less than 50%, 13% and 20%, respectively.

On to `COc1ccc(N2c3ccc(/C=C/C4=[N+](C)c5ccccc5C4(C)C)cc3C3CCCC32)cc1` (stereo not drawn) [Compound 38], for which the Excitation wavelength λex in data set [1] turned out to be 573 nm. Besides, in data set [1], the Fluorescence wavelength λem was found to be 670 nm. For the same molecule, the values for the activity at 10 µg/mL in data set [3] (setting [8]), in data set [3] (setting [9]) and in data set [4] were less than 50%, 5% and 11%, respectively.

Molecule `CCN1c2ccc(/C=C/C3=[N+](C)c4ccc5ccccc5c4C3(C)C)cc2C2CCCC21` (stereo not drawn) [Compound 39] returned an Excitation wavelength λex in data set [1] of 591 nm. In data set [1], the Fluorescence wavelength λem worked out at 626 nm. Moreover, the activity at 10 µg/mL was less than 50% in data set [3] (setting [8]), 6% in data set [3] (setting [9]) and 13% in data set [4].

Regarding `CCn1c2ccccc2c2cc(/C=C/C3=[N+](C)c4ccc5ccccc5c4C3(C)C)ccc21` [Compound 40], the activity at 1 µg/mL in data set [3] (setting [8]) was 50 to 95%; in data set [3] (setting [9]), 73%; in data set [4], 85%. The figures for the activity at 10 µg/mL in data set [3] (setting [8]), in data set [3] (setting [9]) and in data set [4] were less than 50%, 6% and 13%, respectively.

On to `CCN1C(=O)/C(=c2\s/c(=C/c3ccc4c(c3)c3ccccc3n4CC)c(=O)n2CC(=O)O)SC1=S` [compound 1, reference compound], for which the activity at 10 µg/mL was no less than 50% in data set [2] (setting [6]), 99% in data set [2] (setting [7]), no less than 50% in data set [5] (setting [6]) and 104% in data set [5] (setting [7]).

Regarding `CCOC(=O)Cn1c(=O)/c(=C\c2ccc3c(c2)C2CCCC2N3c2ccccc2)s/c1=C1/SC(=S)N(CC)C1=O` (stereo not drawn) [compound 2, reference compound], the activity at 10 µg/mL in data set [2] (setting [6]) was no less than 50%; in data set [2] (setting [7]), 91%; in data set [5] (setting [6]), no less than 50%; in data set [5] (setting [7]), 88.8%.

`COc1ccc(N2c3ccc(/C=C4/SC(=S)N(CCC(=O)O)C4=O)cc3C3CCCC32)cc1` (stereo not drawn) [compound 3, reference compound]: the activity at 10 µg/mL in data set [2] (setting [6]) is no less than 50%; in data set [2] (setting [7]), 95%; in data set [5] (setting [6]), no less than 50%; in data set [5] (setting [7]), 86.5%.

Turning to `O=C(O)Cn1c(=O)/c(=C\c2ccc3c(c2)C2CCCC2N3c2ccccc2)s/c1=C1/SC(=S)N(Cc2ccccc2)C1=O` (stereo not drawn) [compound 5, reference compound], the activity at 1 µg/mL in data set [3] (setting [8]) is no less than 95%; in data set [3] (setting [9]), 106%; in data set [4], 97%. Moreover, the activity at 10 µg/mL was no less than 95% in data set [3] (setting [8]), 107% in data set [3] (setting [9]) and 90% in data set [4].

For the origin of these results see patent publication US10220024B2, “Method of inhibiting cancer cell, method for detecting cancer cell, and system for detecting cancer cell” (CANON KABUSHIKI KAISHA, priority 2012, dated 2019).
